Measured values reported in publication PMC9798632, “Tailor-made alkaliphilic and thermostable fungal laccases for industrial wood processing” (Biotechnology for Biofuels and Bioproducts, 2022).

Key:
Assay in all cases: spectrophotometric oxidation at […] nm, hyperbolic fit
Assay type in all cases: biochemical
[1] = molecular target: T1, RY2 laccase (parent of Li9, Li10, Li11, C-LeB, Mol2, Mol3) (basidiomycete PM1, UniProt Q12571, N284D/F413N/F417I/F475P/F481M, form not given); conditions: 100 mM Tris-HCl pH 8, room temperature
T1 construct: one polypeptide; engineered from 7D5 (PDB 6H5Y, used as model template), which came from DNA shuffling of evolved PM1L and P. cinnabarinus laccases; RY2 residues: D263 (from N263), P454, S207, S291, V413, D457, A461, I468; evolved alpha-factor leader a9H2 as signal peptide; host S. cerevisiae BJ5465, purified by HPLC
T1 sequence (Q12571 entry or part of it N284D/F413N/F417I/F475P/F481M, form open): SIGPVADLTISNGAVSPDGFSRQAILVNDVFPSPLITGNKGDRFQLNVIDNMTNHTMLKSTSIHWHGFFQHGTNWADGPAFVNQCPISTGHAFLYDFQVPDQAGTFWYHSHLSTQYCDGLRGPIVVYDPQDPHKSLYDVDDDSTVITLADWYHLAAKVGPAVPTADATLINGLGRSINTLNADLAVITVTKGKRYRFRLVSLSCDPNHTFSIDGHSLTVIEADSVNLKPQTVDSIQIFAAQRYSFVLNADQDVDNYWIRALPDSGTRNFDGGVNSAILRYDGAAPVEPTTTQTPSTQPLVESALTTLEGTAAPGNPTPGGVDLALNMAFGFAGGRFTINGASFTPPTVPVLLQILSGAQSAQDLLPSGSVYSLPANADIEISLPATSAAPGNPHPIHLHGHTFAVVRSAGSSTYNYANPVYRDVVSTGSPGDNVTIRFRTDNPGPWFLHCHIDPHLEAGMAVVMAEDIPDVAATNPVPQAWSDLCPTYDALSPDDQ

[2] = molecular target: T2, RY2 laccase (parent of Li9, Li10, Li11, C-LeB, Mol2, Mol3) (basidiomycete PM1, UniProt Q12571, N284V/F413N/F417I/V445T/S450T/D462N/F475P/A479L/F481M, form not given); conditions: 100 mM Tris-HCl pH 8, room temperature
T2 construct: one polypeptide; engineered from 7D5 (PDB 6H5Y, used as model template), which came from DNA shuffling of evolved PM1L and P. cinnabarinus laccases; RY2 residues: D263 (from N263), P454, S207, S291, V413, D457, A461, I468; evolved alpha-factor leader a9H2 as signal peptide; host S. cerevisiae BJ5465, purified by HPLC
T2 sequence (Q12571 entry or part of it N284V/F413N/F417I/V445T/S450T/D462N/F475P/A479L/F481M, form open): as the sequence (Q12571 entry or part of it N284D/F413N/F417I/F475P/F481M, form open) above, with D263V, V424T, S429T, D441N, A458L counted along it

[3] = molecular target: T3, RY2 laccase (parent of Li9, Li10, Li11, C-LeB, Mol2, Mol3) (basidiomycete PM1, UniProt Q12571, N284V/F413N/F417I/F475P/F481M, form not given); conditions: 100 mM Tris-HCl pH 8, room temperature
T3 construct: one polypeptide; engineered from 7D5 (PDB 6H5Y, used as model template), which came from DNA shuffling of evolved PM1L and P. cinnabarinus laccases; RY2 residues: D263 (from N263), P454, S207, S291, V413, D457, A461, I468; evolved alpha-factor leader a9H2 as signal peptide; host S. cerevisiae BJ5465, purified by HPLC
T3 sequence (Q12571 entry or part of it N284V/F413N/F417I/F475P/F481M, form open): as the sequence (Q12571 entry or part of it N284D/F413N/F417I/F475P/F481M, form open) above, with D263V counted along it

[4] = molecular target: T4, RY2 laccase (parent of Li9, Li10, Li11, C-LeB, Mol2, Mol3) (basidiomycete PM1, UniProt Q12571, N284V/F413N/F417I/F475P/A479L/F481M, form not given); conditions: 100 mM Tris-HCl pH 8, room temperature
T4 construct: one polypeptide; engineered from 7D5 (PDB 6H5Y, used as model template), which came from DNA shuffling of evolved PM1L and P. cinnabarinus laccases; RY2 residues: D263 (from N263), P454, S207, S291, V413, D457, A461, I468; evolved alpha-factor leader a9H2 as signal peptide; host S. cerevisiae BJ5465, purified by HPLC
T4 sequence (Q12571 entry or part of it N284V/F413N/F417I/F475P/A479L/F481M, form open): as the sequence (Q12571 entry or part of it N284D/F413N/F417I/F475P/F481M, form open) above, with D263V, A458L counted along it

[5] = molecular target: T5, RY2 laccase (parent of Li9, Li10, Li11, C-LeB, Mol2, Mol3) (basidiomycete PM1, UniProt Q12571, N284D/F475P, form not given); conditions: pH 5, room temperature
T5 construct: one polypeptide; engineered from 7D5 (PDB 6H5Y, used as model template), which came from DNA shuffling of evolved PM1L and P. cinnabarinus laccases; RY2 residues: D263 (from N263), P454, S207, S291, V413, D457, A461, I468; evolved alpha-factor leader a9H2 as signal peptide; host S. cerevisiae BJ5465, purified by HPLC
T5 sequence (Q12571 entry or part of it N284D/F475P, form open): as the sequence (Q12571 entry or part of it N284D/F413N/F417I/F475P/F481M, form open) above, with N392F, I396F, M460F counted along it

COc1cccc(OC)c1O [2,6-dimethoxyphenol]
Km [1]: 20000 ± 2400 µM | Km [2]: 1700 ± 200 µM | Km [3]: 1500 ± 100 µM | Km [4]: 1700 ± 100 µM | Km [5]: 260 ± 40 µM
